# From ChEMBL document CHEMBL1137652, “Prevalence and expression of the plasmid-mediated quinolone resistance determinant qnrA1” (2007)
# How the values were obtained:
# Escherichia coli [1] = assay: Antimicrobial activity against azide-resistant aac(6')-Ib-cr expressing Escherichia coli J53 qnrA1 bearing pHS3 transconjugant from Citrobacter freundii 64 by agar dilution method; assay type: functional
# Escherichia coli [2] = assay: Antimicrobial activity against azide-resistant aac(6')-Ib-cr deficient Escherichia coli J53 qnrA1 bearing pHS4 transconjugant from Enterobacter cloacae 91 by agar dilution method; assay type: functional
# Escherichia coli [3] = assay: Antimicrobial activity against azide-resistant aac(6')-Ib-cr deficient Escherichia coli J53 qnrA1 bearing pHS5 transconjugant from Enterobacter cloacae 641 by agar dilution method; assay type: functional
# Escherichia coli [4] = assay: Antimicrobial activity against azide-resistant aac(6')-Ib-cr expressing Escherichia coli J53 qnrA1 bearing pHS6 transconjugant from Escherichia coli 650 by agar dilution method; assay type: functional
# Escherichia coli [5] = assay: Antimicrobial activity against azide-resistant Escherichia coli J53 by agar dilution method; assay type: functional
# Enterobacter cloacae [6] = assay: Antimicrobial activity Enterobacter cloacae 641 expressing plasmid-mediated quinolone resistance qnr A gene by agar dilution method; assay type: functional
# Escherichia coli [7] = assay: Antimicrobial activity Escherichia coli 633 expressing plasmid-mediated quinolone resistance qnr A gene by agar dilution method; assay type: functional
# Citrobacter freundii = assay: Antimicrobial activity Citrobacter freundii 64 expressing plasmid-mediated quinolone resistance qnr A gene by agar dilution method; assay type: functional
# Enterobacter cloacae [8] = assay: Antimicrobial activity Enterobacter cloacae 63 expressing plasmid-mediated quinolone resistance qnr A gene by agar dilution method; assay type: functional
# Enterobacter cloacae [9] = assay: Antimicrobial activity Enterobacter cloacae 91 expressing plasmid-mediated quinolone resistance qnr A gene by agar dilution method; assay type: functional
# Enterobacter cloacae [10] = assay: Antimicrobial activity Enterobacter cloacae 113 expressing plasmid-mediated quinolone resistance qnr A gene by agar dilution method; assay type: functional
# Escherichia coli [11] = assay: microbe, parasite or virus in culture; settings: 650
# Description: (§1) Antimicrobial activity Escherichia coli 650 expressing plasmid-mediated quinolone resistance qnr A gene by agar dilution method
# Escherichia coli [12] = assay: Antibacterial activity against Escherichia coli HB101 by agar dilution method; assay type: functional
# Escherichia coli [13] = assay: Antibacterial activity against pKK232-8-tranformed Escherichia coli HB101 transformants harboring promoterless cat gene by agar dilution method; assay type: functional
# Escherichia coli [14] = assay: Antibacterial activity against pKK232-8-HS3-transformed Escherichia coli HB101 transformants harboring promoter sequence of qnrA1 gene cloned with promoterless cat gene by agar dilution method; assay type: functional
# Escherichia coli [15] = assay: Antibacterial activity against pKK232-8-HS4-transformed Escherichia coli HB101 transformants harboring promoter sequence of qnrA1 gene cloned with promoterless cat gene by agar dilution method; assay type: functional
# Escherichia coli [16] = assay: Antibacterial activity against pKK232-8-HS5-transformed Escherichia coli HB101 transformants harboring promoter sequence of qnrA1 gene cloned with promoterless cat gene by agar dilution method; assay type: functional
# Escherichia coli [17] = assay: Antibacterial activity against pKK232-8-HS6-transformed Escherichia coli HB101 transformants harboring promoter sequence of qnrA1 gene cloned with promoterless cat gene by agar dilution method; assay type: functional
# Escherichia coli [18] = assay: Ratio of MIC for pKK232-8-HS6-transformed Escherichia coli HB101 transformants to MIC for pKK232-8-HS3-transformed Escherichia coli HB101 transformants; assay type: functional
# Escherichia coli [19] = assay: Ratio of MIC for pKK232-8-HS6-transformed Escherichia coli HB101 transformants to MIC for pKK232-8-HS4-transformed Escherichia coli HB101 transformants; assay type: functional
# Escherichia coli [20] = assay: Ratio of MIC for pKK232-8-HS6-transformed Escherichia coli HB101 transformants to MIC for pKK232-8-HS5-transformed Escherichia coli HB101 transformants; assay type: functional
# Escherichia coli [21] = assay: Antibacterial activity against Escherichia coli isolate 1B harboring qnrA1 and blaVEB1 genes by agar dilution method
# Escherichia coli [22] = settings: 650
# Description: as §1
Compound,MIC (Escherichia coli [1]) [mg/L],MIC (Escherichia coli [2]) [mg/L],MIC (Escherichia coli [3]) [mg/L],MIC (Escherichia coli [4]) [mg/L],MIC (Escherichia coli [5]) [mg/L],MIC (Enterobacter cloacae [6]) [mg/L],MIC (Escherichia coli [7]) [mg/L],MIC (Citrobacter freundii) [mg/L],MIC (Enterobacter cloacae [8]) [mg/L],MIC (Enterobacter cloacae [9]) [mg/L],MIC (Enterobacter cloacae [10]) [mg/L],other results
NCC[C@H](O)C(=O)N[C@@H]1C[C@H](N)[C@@H](O[C@H]2O[C@H](CN)[C@@H](O)[C@H](O)[C@H]2O)[C@H](O)[C@H]1O[C@H]1O[C@H](CO)[C@@H](O)[C@H](N)[C@H]1O [AMIKACIN],2,4,4,2,0.5,–,–,–,–,–,–,–
CC1(C)S[C@@H]2[C@H](NC(=O)[C@H](N)c3ccccc3)C(=O)N2[C@H]1C(=O)O [AMPICILLIN],512,≥ 512,≥ 512,512,8,–,–,–,–,–,–,–
CO/N=C(\C(=O)N[C@@H]1C(=O)N2C(C(=O)O)=C(COC(C)=O)CS[C@H]12)c1csc(N)n1 [CEFOTAXIME],≤ 0.06,8,8,0.125,≤ 0.06,32,≥ 128,2,64,32,64,MIC (Escherichia coli [11]): 1 mg/L
CC(C)(O/N=C(\C(=O)N[C@@H]1C(=O)N2C(C(=O)[O-])=C(C[n+]3ccccc3)CS[C@H]12)c1csc(N)n1)C(=O)O [CEFTAZIDIME],0.125,8,32,0.125,0.125,64,4,4,32,128,128,MIC (Escherichia coli [11]): 4 mg/L
O=C(N[C@H](CO)[C@H](O)c1ccc([N+](=O)[O-])cc1)C(Cl)Cl [CHLORAMPHENICOL],–,–,–,–,–,–,–,–,–,–,–,MIC (Escherichia coli [12]): 3 mg/L; MIC (Escherichia coli [13]): 3 mg/L; MIC (Escherichia coli [14]): 8 mg/L; MIC (Escherichia coli [15]): 8 mg/L; MIC (Escherichia coli [16]): 8 mg/L; MIC (Escherichia coli [17]): 96 mg/L; Ratio (Escherichia coli [18]): 12; Ratio (Escherichia coli [19]): 12; Ratio (Escherichia coli [20]): 12
O=C(O)c1cn(C2CC2)c2cc(N3CCNCC3)c(F)cc2c1=O [CIPROFLOXACIN],–,–,–,–,–,–,–,–,–,–,–,MIC (Escherichia coli [21]): > 32 mg/L
NC[C@H]1O[C@H](O[C@H]2[C@H](O)[C@@H](O[C@H]3O[C@H](CO)[C@@H](O)[C@H](N)[C@H]3O)[C@H](N)C[C@@H]2N)[C@H](O)[C@@H](O)[C@@H]1O [KANAMYCIN],8,64,64,16,0.5,–,–,–,–,–,–,–
C[C@H]1COc2c(N3CCN(C)CC3)c(F)cc3c(=O)c(C(=O)O)cn1c23.C[C@H]1COc2c(N3CCN(C)CC3)c(F)cc3c(=O)c(C(=O)O)cn1c23.O [LEVOFLOXACIN],0.19,0.19,0.19,0.38,–,–,–,–,–,–,–,–
CN[C@@H]1[C@H](O[C@H]2[C@H](O[C@H]3[C@H](O)[C@@H](O)[C@H](N=C(N)N)[C@@H](O)[C@@H]3N=C(N)N)O[C@@H](C)[C@]2(O)C=O)O[C@@H](CO)[C@H](O)[C@H]1O [STREPTOMYCIN],2,8,8,1,1,–,–,–,–,–,–,–
Cc1cc(NS(=O)(=O)c2ccc(N)cc2)no1 [SULFAMETHOXAZOLE],≥ 512,≥ 512,≥ 512,≥ 512,8,≥ 512,≥ 512,≥ 512,≥ 512,≥ 512,≥ 512,MIC (Escherichia coli [11]): ≥ 512 mg/L
NC[C@H]1O[C@H](O[C@H]2[C@H](O)[C@@H](O[C@H]3O[C@H](CO)[C@@H](O)[C@H](N)[C@H]3O)[C@H](N)C[C@@H]2N)[C@H](N)C[C@@H]1O [TOBRAMYCIN],8,8,8,8,0.25,–,–,–,–,–,–,–
COc1cc(Cc2cnc(N)nc2N)cc(OC)c1OC [TRIMETHOPRIM],≤ 0.06,≥ 512,≥ 512,0.25,≤ 0.06,–,–,–,–,–,–,–
GENTAMICIN,8,2,2,0.25,0.25,4,> 128,32,4,8,8,MIC (Escherichia coli [22]): > 128 mg/L
